Measurements reported in ChEMBL document CHEMBL3120076, “Structure-activity relationship of Baifuzi-cerebrosides on BKCa channel activation” (Eur J Med Chem, 2014).
Blank lines part the entries; values can stand above or below the compound they belong to. The source made the active and inactive calls. The calls are words filed in the database; no cut-off is given here.

Columns and labels:
Type in all cases: cell-based
CHO-K1 [1] = assay: Activation of wild type BK calcium channel (unknown origin) expressed in CHO-K1 cells assessed as increase in channel open probability at 1 uM at +20 mV holding potential by whole cell patch-clamp technique (reference value: 0.58 +/- 0.03%); settings: Homo sapiens
CHO-K1 [2] = assay: Activation of wild type BK calcium channel (unknown origin) expressed in CHO-K1 cells assessed as increase in channel open probability at 10 uM at +20 mV holding potential by whole cell patch-clamp technique (reference value: 0.58 +/- 0.03%); settings: Homo sapiens
CHO-K1 [3] = assay: Extracellular activation of wild type BK calcium channel (unknown origin) expressed in CHO-K1 cells assessed as increase in whole cell currents at 10 uM by whole cell patch-clamp technique; settings: Homo sapiens
CHO-K1 [4] = assay: Activation of wild type BK calcium channel (unknown origin) expressed in CHO-K1 cells assessed as increase in channel open probability by whole cell patch-clamp technique relative to control; settings: Homo sapiens
CHO-K1 [5] = assay: Activation of wild type BK calcium channel (unknown origin) expressed in CHO-K1 cells assessed as increase in channel open probability at 0.1 uM at +20 mV holding potential by whole cell patch-clamp technique (reference value: 0.58 +/- 0.03%); settings: Homo sapiens
CHO-K1 [6] = assay: Activation of wild type BK calcium channel STREX domain-deleted mutant (unknown origin) expressed in CHO-K1 cells assessed as increase in channel open probability at 10 uM at +20 mV holding potential by whole cell patch-clamp technique (reference value: 0.7 +/- 0.1%); settings: Homo sapiens
CHO-K1 [7] = assay: (§1) Activation of wild type BK calcium channel (unknown origin) expressed in CHO-K1 cells assessed as increase in channel open probability at +20 mV holding potential by whole cell patch-clamp technique; settings: Homo sapiens
[8] = as §1
CHO-K1 [9] = assay: Activation of wild type BK calcium channel (unknown origin) expressed in CHO-K1 cells assessed as increase in channel open probability at 5 uM at +20 mV holding potential by whole cell patch-clamp technique (reference value: 0.58 +/- 0.03%); settings: Homo sapiens

EC50 [8]: 1000 nM
SMILES: CCCCCCCCC/C=C\CC/C=C/[C@@H](O)[C@H](CO[C@@H]1O[C@H](CO)[C@@H](O)[C@H](O)[C@H]1O)NC(=O)[C@H](O)CCCCCCCCCCCCCCCCCCCC
Activity (CHO-K1 [1]): 2.4%
Activity (CHO-K1 [2]): 4.2%
Activity (CHO-K1 [3]): Active
fold change (FC) (CHO-K1 [4]): 5.34
Activity (CHO-K1 [5]): 0.65%
Activity (CHO-K1 [6]): 0.9%
Activity (CHO-K1 [7]): Dose-dependent effect
Activity (CHO-K1 [9]): 3.3%

SMILES: CCCCCCCCC/C=C/CC/C=C/[C@@H](O)[C@H](CO[C@@H]1O[C@H](CO)[C@@H](O)[C@H](O)[C@H]1O)NC(=O)[C@H](O)CCCCCCCCCCCCCCCCCC
fold change (FC) (CHO-K1 [4]): 3.12

SMILES: CCCCCCCCC/C=C/CC/C=C/[C@@H](O)[C@H](CO[C@@H]1O[C@H](CO)[C@@H](O)[C@H](O)[C@H]1O)NC(=O)[C@H](O)CCCCCCCCCCCCCCCC
fold change (FC) (CHO-K1 [4]): 2.03

SMILES: CCCCCCCCC/C=C\CC/C=C/[C@@H](O)[C@H](CO[C@@H]1O[C@H](CO)[C@@H](O)[C@H](O)[C@H]1O)NC(=O)[C@H](O)CCCCCCCCCCCCCCCCCC
fold change (FC) (CHO-K1 [4]): 1.89

SMILES: CCCCCCCCC/C=C\CC/C=C/[C@@H](O)[C@H](CO[C@@H]1O[C@H](CO)[C@@H](O)[C@H](O)[C@H]1O)NC(=O)[C@H](O)CCCCCCCCCCCCCCCC
fold change (FC) (CHO-K1 [4]): 1.15
